The assay concerns the target Tyrosine-protein kinase JAK1 (Homo sapiens, UniProt P23458). The assay can be described thus: ADP-Glo Kinase assay. As for the experimental part:
An inhibitory effect of the inventive compound on JAK was identified as follows.A control material and a test material were prepared through dilution at each concentration by using DMSO. At the same time, ATP (250 uM) and JAK's substrate (JAK1, IRS-1tide 40 ng/mL) were prepared through dilution in kinase buffer (40 mM Tris-HCl pH 7.5, 20 mM MgCl2, 0.5 mg/mL BSA, 50 uM DTT).A test drug for each concentration, the substrate, the ATP and JAK enzymes were mixed in an eppendorf tube, and then subjected to reaction in an incubator at 30° C. for 40 minutes.ADP-GloFigure US12180185-20241231-P00001 reagent included in ADP-Glo™ Kinase Enzyme System (Promega, USA, V9571) was added to each eppendorf tube, and then subjected to reaction in the incubator at 30° C. for 40 minutes.A kinase detection reagent included in the ADP-Glo™ Kinase Enzyme System was inserted into the eppendorf tube, after which luminescence was measured by using Wallac Victor 2TM with an integration time set to 1 second, such that an inhibitory capacity of the test material on JAKs phosphorylation was analyzed. A concentration of the compound, at which JAK enzyme activity inhibition occurs 50% compared to the control group, was determined as IC50 (nM) of an inhibitor.

Tyrosine-protein kinase JAK1, sequence (P23458 whole entry): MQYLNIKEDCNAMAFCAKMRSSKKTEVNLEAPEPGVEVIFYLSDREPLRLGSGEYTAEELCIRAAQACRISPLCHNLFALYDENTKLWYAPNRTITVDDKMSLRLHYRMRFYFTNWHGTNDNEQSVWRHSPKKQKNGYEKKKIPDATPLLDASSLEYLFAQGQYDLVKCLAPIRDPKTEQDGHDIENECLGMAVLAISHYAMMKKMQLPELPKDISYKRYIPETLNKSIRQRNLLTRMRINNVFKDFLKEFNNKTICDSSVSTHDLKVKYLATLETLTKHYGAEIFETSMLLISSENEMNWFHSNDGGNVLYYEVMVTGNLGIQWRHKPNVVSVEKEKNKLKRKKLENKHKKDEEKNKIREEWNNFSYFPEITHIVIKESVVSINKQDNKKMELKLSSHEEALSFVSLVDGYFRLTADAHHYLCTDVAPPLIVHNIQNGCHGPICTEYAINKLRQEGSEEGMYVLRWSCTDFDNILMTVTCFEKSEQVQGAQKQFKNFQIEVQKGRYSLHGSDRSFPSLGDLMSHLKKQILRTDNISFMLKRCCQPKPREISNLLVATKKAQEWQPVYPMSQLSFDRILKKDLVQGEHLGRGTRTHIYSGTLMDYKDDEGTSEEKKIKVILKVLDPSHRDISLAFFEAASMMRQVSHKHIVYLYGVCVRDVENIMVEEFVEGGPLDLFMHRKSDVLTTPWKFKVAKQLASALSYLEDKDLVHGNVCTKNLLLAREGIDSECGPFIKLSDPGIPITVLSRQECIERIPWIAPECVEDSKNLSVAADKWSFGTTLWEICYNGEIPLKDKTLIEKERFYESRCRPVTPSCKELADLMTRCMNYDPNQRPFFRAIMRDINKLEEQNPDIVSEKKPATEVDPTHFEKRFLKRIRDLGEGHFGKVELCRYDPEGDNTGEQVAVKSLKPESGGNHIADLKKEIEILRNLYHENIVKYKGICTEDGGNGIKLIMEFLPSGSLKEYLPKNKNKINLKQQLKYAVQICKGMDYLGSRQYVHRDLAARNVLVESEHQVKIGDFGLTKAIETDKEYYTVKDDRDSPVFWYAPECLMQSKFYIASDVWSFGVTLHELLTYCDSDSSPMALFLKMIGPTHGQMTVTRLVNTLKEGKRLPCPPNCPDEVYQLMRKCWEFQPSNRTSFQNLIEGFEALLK

As usually defined, the IC50 is the concentration at which inhibition is half-maximal. Compound `CC(C)=C(C#N)C(=O)Nc1cccc2c(-c3ccnc(NC(=O)C4CC4)c3)n[nH]c12` [US12180185, Example 63] came in with an IC50 above 1000 nM.

Values taken from BindingDB's records for patent US12180185 (Hk Inno.N, 2024).
